From patent publication US8097725B2, “Luminescent indicator dye and optical sensor” (Roche Diagnostics Operations, Inc., priority 2004, dated 2012)

Tests used:
[1] = immobilized in a hydrogel matrix; FIG. 3 in Werner et al.; cited from earlier work
[2] = pH titration of luminescence intensity of the optical sensor disc; type: physicochemical
Description: The indicator layer casting solution was coated onto a polyester foil (Melinex foil, ICI America) and the solvent was evaporated. The final dry thickness of the indicator layer was approximately 10 μm. Then, the overcoat layer casting solution was coated onto the indicator layer and the solvent was evaporated. The final a dry thickness of the overcoat layer was about 5 μm. Then, a small sensor disc (2.5 cm diameter) was punched out and soaked in buffer for at least 17 h for activation.
Aliquots of solutions A and B were mixed in appropriate rations to obtain eleven pH buffer solutions of pH 2.67, 3.66, 5.41, 6.35, 6.74, 7.28, 7.76, 8.29, 8.78, 9.81, 10.79, respectively. The pHs were determined at 37° C. with a standard glass electrode.
The sensor discs thus obtained were used in the measuring set-up represented schematically in FIG. 2. In FIG. 2, the reference character S denotes a portion of the sensor disc. […]
[formula] L denotes luminescence intensity and Lm denotes maximum luminescence intensity. […] (ON intensity=luminescence intensity of the protonated species (i.e., in FIG. 3 the intensity at pHs<5), OFF intensity=intensity of the deprotonated species (i.e., in FIG. 3 the intensity at pHs>10).

| SMILES | pK [1] | OFF intensity as percentage of ON intensity ([2]; ON = protonated species (pH<5), OFF = deprotonated species (pH>10)) | pK value ([2]; immobilized on PVP beads dispersed in hydrophilic polymer layer, 37° C., buffers pH 2.67-10.79, least squares fit of intensity vs pH, excitation 480 nm, emission 520 nm cut-off) |
| --- | --- | --- | --- |
| CC1=CC(C)=[N+]2C1=C(c1ccc(N(C)C)cc1)c1c(C)cc(C)n1[B-]2(F)F [1,3,5,7-tertramethyl-8-(4-dimethylamino)-4-difluorobora-3a,4a-diaza(s)-indacene] | 3.3 | – | – |
| O=C(O)c1ccc(CN2C(=O)c3cccc4c(NCCc5cc(Cl)c(O)c(Cl)c5)ccc(c34)C2=O)cc1 [Dye A41] | – | 5% | 7.25 |
